Assay results taken from patent publication US20260297094A1, “Tetracyclic Compounds as SMARCA2 and/or SMARCA4 Degraders” (Aurigene Oncology Limited, priority 2023, published 2026).
pEC50: −log10 of the molar value. Where a name gives a salt, the structure may show the parent alone.

Assays:
Format in all cases: cell-based
MV-4-11 cells = test: Anti proliferative activity in MV-4-11 cells by Cell Titer Glo (Promega) assay; conditions: Homo sapiens, MV4-11, 72 h, 3 days, CellTiter-Glo
How it was run: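 MV-4-11 cells in complete DMEM were exposed to compound for 3 days in triplicate, final DMSO ≤0.3%. Viability was read by CellTiter-Glo ATP luminescence, and % inhibition was taken relative to the DMSO control. EC50 was derived from concentration-response curves.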

SK-MEL-5 cells = test: Anti proliferative activity in SK-MEL-5 cells by Cell Titer Glo (Promega) assay; conditions: Homo sapiens, retreatment on Day 4, terminated on day 8, CellTiter-Glo
How it was run: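 SK-MEL-5 cells treated with 9-point 3-fold dilution series, re-dosed on day 4, read on day 8 by CellTiter-Glo luminescence. EC50 derived from percent proliferation inhibition versus concentration.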

SMARCA2 = biological target: T1, SMARCA2 (Homo sapiens, UniProt P51531); test: SMARCA2 degradation in MV-4-11 cells by Western blot; conditions: MV4-11, 16 h, at 100 nM, vs DMSO, read-out: Percent degradation SMARCA2
T1 construct: endogenous in cells; host or cells: MV-4-11 (CRL-9591)
Protocol: (§1) Example-P3: Determination of SMARCA2 and SMARCA4 Degradation in MV-4-11 Cells by Western Blot
(§2) MV-4-11 (CRL-9591™) cells were plated in 6 well plates using complete Iscove's Modified Dulbecco's Medium. On the third day, compounds of present invention were added to cells from 10 mM stocks made in DMSO (Sigma Cat no. D2650). Each concentration of compound was tested with DMSO not exceeding final percentage of 0.1 in the cells. Cells were incubated with the compound for 16 hours followed by harvesting with 1×RIPA lysis buffer (Thermo Fischer, catalogue number #89900) containing protease inhibitor cocktail (Sigma catalogue number #P-8340). Equal amount of protein was loaded on SDS PAGE gel for electrophoresis. Western blot was carried out for detection of either SMARCA2 (Cell signalling technologies, catalogue number #11966) or SMARCA4 antibody (Cell signalling technologies, catalogue number #52251). Beta-Tubulin antibody (Cell signalling technologies, catalogue number #86298) was used as loading control. Percentage of SMARCA2 or SMARCA4 degradation was calculated using formula % Degradation=100−(normalized band intensity in treated sample/normalized band intensity in DMSO sample)*100. Here, “ND” refers to Not determined.

SMARCA4 = biological target: T2, SMARCA4 (Homo sapiens, UniProt P51532); test: SMARCA4 degradation in MV-4-11 cells by Western blot; conditions: MV4-11, at 100 nM, 16 hours, vs DMSO, read-out: Percent degradation SMARCA4
T2 construct: endogenous in cells; host or cells: MV-4-11 (CRL-9591)
Protocol: as §1, §2

T2 sequence (P51532 whole entry): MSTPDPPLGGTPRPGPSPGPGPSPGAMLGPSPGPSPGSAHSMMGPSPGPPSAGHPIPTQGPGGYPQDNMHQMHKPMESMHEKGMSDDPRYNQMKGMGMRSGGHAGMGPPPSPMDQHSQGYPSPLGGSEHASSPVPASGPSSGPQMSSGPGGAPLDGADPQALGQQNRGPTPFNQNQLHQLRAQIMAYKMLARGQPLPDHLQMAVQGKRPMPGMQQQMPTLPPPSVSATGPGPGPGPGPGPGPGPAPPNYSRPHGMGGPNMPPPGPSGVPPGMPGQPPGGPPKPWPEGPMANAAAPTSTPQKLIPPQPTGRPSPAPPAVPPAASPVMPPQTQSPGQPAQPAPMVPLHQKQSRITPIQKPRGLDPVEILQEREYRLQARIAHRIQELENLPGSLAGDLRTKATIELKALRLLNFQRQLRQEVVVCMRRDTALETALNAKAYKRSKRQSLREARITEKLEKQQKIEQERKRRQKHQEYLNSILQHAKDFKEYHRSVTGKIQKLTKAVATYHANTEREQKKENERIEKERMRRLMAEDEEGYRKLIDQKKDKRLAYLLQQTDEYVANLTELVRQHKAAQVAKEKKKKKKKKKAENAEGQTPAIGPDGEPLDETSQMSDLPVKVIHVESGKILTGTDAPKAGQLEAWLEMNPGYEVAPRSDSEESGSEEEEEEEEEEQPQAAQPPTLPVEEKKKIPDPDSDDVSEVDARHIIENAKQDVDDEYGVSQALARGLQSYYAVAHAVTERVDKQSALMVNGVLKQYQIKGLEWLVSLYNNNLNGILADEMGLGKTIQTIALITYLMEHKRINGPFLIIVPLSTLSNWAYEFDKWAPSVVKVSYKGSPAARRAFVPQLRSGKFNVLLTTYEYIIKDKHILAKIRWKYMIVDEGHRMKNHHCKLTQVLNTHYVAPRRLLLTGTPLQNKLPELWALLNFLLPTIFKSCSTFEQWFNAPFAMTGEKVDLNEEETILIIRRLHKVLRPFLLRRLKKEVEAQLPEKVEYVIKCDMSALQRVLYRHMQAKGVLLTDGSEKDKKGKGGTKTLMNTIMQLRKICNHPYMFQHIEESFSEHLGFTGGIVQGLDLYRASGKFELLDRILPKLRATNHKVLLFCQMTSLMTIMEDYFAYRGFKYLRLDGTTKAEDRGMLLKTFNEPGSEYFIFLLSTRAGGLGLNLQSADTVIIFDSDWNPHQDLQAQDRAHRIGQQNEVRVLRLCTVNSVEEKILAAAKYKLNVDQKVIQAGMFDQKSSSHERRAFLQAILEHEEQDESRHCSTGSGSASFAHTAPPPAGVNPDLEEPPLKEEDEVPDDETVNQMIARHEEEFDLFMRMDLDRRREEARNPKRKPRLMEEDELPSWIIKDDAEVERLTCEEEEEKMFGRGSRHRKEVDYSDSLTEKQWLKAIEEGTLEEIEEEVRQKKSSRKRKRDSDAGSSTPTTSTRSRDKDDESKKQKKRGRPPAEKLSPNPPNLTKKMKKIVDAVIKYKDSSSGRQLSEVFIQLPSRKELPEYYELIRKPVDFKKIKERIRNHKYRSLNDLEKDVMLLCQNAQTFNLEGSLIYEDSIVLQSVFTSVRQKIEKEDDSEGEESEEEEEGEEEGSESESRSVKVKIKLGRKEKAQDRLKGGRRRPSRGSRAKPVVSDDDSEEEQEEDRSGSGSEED
T1 sequence (P51531 whole entry): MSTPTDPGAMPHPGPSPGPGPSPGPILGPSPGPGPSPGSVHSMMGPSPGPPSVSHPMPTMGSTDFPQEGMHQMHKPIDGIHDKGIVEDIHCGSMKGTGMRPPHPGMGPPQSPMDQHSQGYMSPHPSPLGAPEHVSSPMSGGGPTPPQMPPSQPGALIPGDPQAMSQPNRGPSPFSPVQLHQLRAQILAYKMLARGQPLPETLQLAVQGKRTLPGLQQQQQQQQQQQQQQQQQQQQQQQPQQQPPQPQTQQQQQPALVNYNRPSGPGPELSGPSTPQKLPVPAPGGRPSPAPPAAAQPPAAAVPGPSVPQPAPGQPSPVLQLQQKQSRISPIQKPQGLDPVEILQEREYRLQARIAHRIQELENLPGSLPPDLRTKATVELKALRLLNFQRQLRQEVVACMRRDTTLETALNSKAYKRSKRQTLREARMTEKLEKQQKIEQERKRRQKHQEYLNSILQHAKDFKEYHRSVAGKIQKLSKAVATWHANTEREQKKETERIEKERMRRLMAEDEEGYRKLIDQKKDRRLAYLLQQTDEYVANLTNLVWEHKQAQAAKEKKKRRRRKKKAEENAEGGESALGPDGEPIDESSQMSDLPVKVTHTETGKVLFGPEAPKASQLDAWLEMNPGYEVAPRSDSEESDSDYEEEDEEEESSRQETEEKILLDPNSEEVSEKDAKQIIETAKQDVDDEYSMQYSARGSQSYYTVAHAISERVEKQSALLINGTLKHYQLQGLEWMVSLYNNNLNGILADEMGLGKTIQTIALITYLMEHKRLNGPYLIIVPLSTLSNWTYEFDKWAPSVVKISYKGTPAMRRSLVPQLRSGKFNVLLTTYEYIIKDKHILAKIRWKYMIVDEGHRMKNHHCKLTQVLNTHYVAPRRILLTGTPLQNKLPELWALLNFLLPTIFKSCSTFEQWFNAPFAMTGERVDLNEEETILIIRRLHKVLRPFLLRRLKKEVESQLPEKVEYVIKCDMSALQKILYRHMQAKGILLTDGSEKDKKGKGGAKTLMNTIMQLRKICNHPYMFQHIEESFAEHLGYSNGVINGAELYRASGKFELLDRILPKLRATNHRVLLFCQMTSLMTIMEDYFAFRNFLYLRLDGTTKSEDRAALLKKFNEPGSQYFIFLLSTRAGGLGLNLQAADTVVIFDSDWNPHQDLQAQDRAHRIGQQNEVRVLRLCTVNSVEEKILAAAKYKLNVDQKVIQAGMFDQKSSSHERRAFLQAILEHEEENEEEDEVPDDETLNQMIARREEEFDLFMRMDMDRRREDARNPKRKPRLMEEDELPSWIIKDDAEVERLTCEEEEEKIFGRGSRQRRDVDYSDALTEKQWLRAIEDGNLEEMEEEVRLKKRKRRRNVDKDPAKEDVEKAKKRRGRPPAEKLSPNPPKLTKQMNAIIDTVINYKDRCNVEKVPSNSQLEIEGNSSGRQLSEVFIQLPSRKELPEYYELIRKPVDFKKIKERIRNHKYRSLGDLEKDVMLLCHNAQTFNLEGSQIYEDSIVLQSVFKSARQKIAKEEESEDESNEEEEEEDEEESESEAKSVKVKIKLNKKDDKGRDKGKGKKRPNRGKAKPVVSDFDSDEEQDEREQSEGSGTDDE

| Structure (SMILES) | pEC50 (MV-4-11 cells) | pEC50 (SK-MEL-5 cells) | inhibition at 0.1 µM (SMARCA2) | inhibition at 0.1 µM (SMARCA4) |
| --- | --- | --- | --- | --- |
| O=C1CCC(Nc2ccc(C3CCN(C4CCN(c5ccc6c(c5)n(C5CCCC5)c5nc(=O)c7c(Br)cccc7n65)CC4)CC3)c(F)c2)C(=O)N1 (stereo not shown) [Compound 3, 3-((4-(1′-(4-bromo-7-cyclopentyl-5-oxo-5,7-dihydrobenzo[4,5]imidazo[1,2-a]quinazolin-9-yl)-[1,4′-bipiperidin]-4-yl)-3-fluorophenyl)amino)piperidine-2,6-dione] | > 8.00 | > 8.00 | 100% | 99% |
| O=C1CCC(N2Cc3cc(C4CCN(C5CCN(c6ccc7c(c6)n(C6CCCC6)c6nc(=O)c8c(Cl)cccc8n76)CC5)CC4)ccc3C2=O)C(=O)N1 (stereo not shown) [Compound 9, 3-(5-(1′-(4-chloro-7-cyclopentyl-5-oxo-5,7-dihydrobenzo[4,5]imidazo[1,2-a]quinazolin-9-yl)-[1,4′-bipiperidin]-4-yl)-1-oxoisoindolin-2-yl)piperidine-2,6-dione] | > 8.00 | > 8.00 | 90% | 99% |
| Cn1c2cc(N3CCC(N4CCC(c5ccc(NC6CCC(=O)NC6=O)cc5F)CC4)CC3)ccc2n2c3cccc(Br)c3c(=O)nc12 (stereo not shown) [Compound 16, 3-((4-(1′-(4-bromo-7-methyl-5-oxo-5,7-dihydrobenzo[4,5]imidazo[1,2-a]quinazolin-9-yl)-[1,4′-bipiperidin]-4-yl)-3-fluorophenyl)amino)piperidine-2,6-dione] | > 8.00 | > 8.00 | 99% | 100% |
| O=C1CCC(c2ccc(C3CCN(C4CCN(c5ccc6c(c5)n(C5CCCC5)c5nc(=O)c7c(Br)cccc7n65)CC4)CC3)cc2)C(=O)N1 (stereo not shown) [Compound 4, 3-(4-(1′-(4-bromo-7-cyclopentyl-5-oxo-5,7-dihydrobenzo[4,5]imidazo[1,2-a]quinazolin-9-yl)-[1,4′-bipiperidin]-4-yl)phenyl)piperidine-2,6-dione] | > 8.00 | > 8.00 | 90% | 97% |
| O=C1CCC(N2Cc3cc(C4CCN(C5CCN(c6ccc7c(c6)n(C6CCCC6)c6nc(=O)c8c(Br)cccc8n76)CC5)CC4)ccc3C2=O)C(=O)N1 (stereo not shown) [Compound 1, 3-(5-(1′-(4-Bromo-7-cyclopentyl-5-oxo-5,7-dihydrobenzo[4,5]imidazo[1,2-a]quinazolin-9-yl)-[1,4′-bipiperidin]-4-yl)-1-oxoisoindolin-2-yl)piperidine-2,6-dione] | > 8.00 | > 8.00 | 100% | 98% |
| Cn1c2cc(N3CCC(N4CCC(c5ccc(C6CCC(=O)NC6=O)cc5)CC4)CC3)ccc2n2c3cccc(Br)c3c(=O)nc12 (stereo not shown) [Compound 17, 3-(4-(1′-(4-bromo-7-methyl-5-oxo-5,7-dihydrobenzo[4,5]imidazo[1,2-a]quinazolin-9-yl)-[1,4′-bipiperidin]-4-yl)phenyl)piperidine-2,6-dione] | > 8.00 | > 8.00 | 68% | 24% |

Next, values leading:

| pEC50 (MV-4-11 cells) | pEC50 (SK-MEL-5 cells) | inhibition at 0.1 µM (SMARCA2) | inhibition at 0.1 µM (SMARCA4) | Structure (SMILES) |
| --- | --- | --- | --- | --- |
| < 7.00 | 7.00 to 8.00 | 86% | 75% | CC(C)n1c2cc(N3CCC(N4CCC(c5ccc(C6CCC(=O)NC6=O)cc5)CC4)CC3)ccc2n2c3cccc(N)c3c(=O)nc12 (stereo not shown) [Compound 21, 3-(4-(1′-(4-amino-7-isopropyl-5-oxo-5,7-dihydrobenzo[4,5]imidazo[1,2-a]quinazolin-9-yl)-[1,4′-bipiperidin]-4-yl)phenyl)piperidine-2,6-dione] |
| < 7.00 | < 7.00 | 59% | 38% | Cn1c2cc(N3CCC(N4CCN(c5ccc(C6CCC(=O)NC6=O)cc5)CC4)CC3)ccc2n2c3cccc(N)c3c(=O)nc12 (stereo not shown) [Compound 32, 3-(4-(4-(1-(4-amino-7-methyl-5-oxo-5,7-dihydrobenzo[4,5]imidazo[1,2-a]quinazolin-9-yl)piperidin-4-yl)piperazin-1-yl)phenyl)piperidine-2,6-dione-HCl salt] |
| < 7.00 | 7.00 to 8.00 | 80% | 81% | Cn1c2cc(N3CCC(N4CCC(c5ccc(C6CCC(=O)NC6=O)cc5)CC4)CC3)ccc2n2c3cccc(N)c3c(=O)nc12 (stereo not shown) [Compound 20, 3-(4-(1′-(4-amino-7-methyl-5-oxo-5,7-dihydrobenzo[4,5]imidazo[1,2-a]quinazolin-9-yl)-[1,4′-bipiperidin]-4-yl)phenyl)piperidine-2,6-dione] |
| > 8.00 | > 8.00 | 89% | 56% | O=C1CCC(c2ccc(C3CCN(C4CCN(c5ccc6c(c5)n(C5CCCC5)c5nc(=O)c7c(Cl)cccc7n65)CC4)CC3)cc2)C(=O)N1 (stereo not shown) [Compound 22, 3-(4-(1′-(4-chloro-7-cyclopentyl-5-oxo-5,7-dihydrobenzo[4,5]imidazo[1,2-a]quinazolin-9-yl)-[1,4′-bipiperidin]-4-yl)phenyl)piperidine-2,6-dione-HCl salt] |
